For four molecules, MIC50 results are on record in ChEMBL document CHEMBL1122513, “Synthesis and antiviral activity of carbocyclic analogues of 2'-deoxyribofuranosides of 2-amino-6-substituted-purines and of 2-amino-6-substituted-8-azapurines” (J Med Chem, 1984).

≈ marks a conversion by molar mass, not a printed value.

In this experiment the test system is Vaccinia virus. Description: Concentration required to inhibit vaccinia virus induced cytopathogenic affects by 50%. The experiment is classed as functional, Orthopoxvirus vaccinia. On the technique in general: Damage to the host cells serves as the signal in cytopathic effect assays.
Setting [1] is: Orthopoxvirus vaccinia, read-out: MIC50.

Regarding `Nc1ncnc2c1ncn2[C@@H]1C[C@H](CO)[C@@H](O)[C@@H]1O`, the MIC50 stood at 9 µg/mL (≈ 33.9 µM). Under setting [1], the MIC50 came to 9 µg/mL (≈ 33.9 µM). As to `OCC1CC(n2nnc3c(O)ncnc32)C(O)C1O` (stereo not given), the MIC50 under setting [1] came out at 467 µg/mL (≈ 1750 µM). For `OCC1CC(n2cnc3c(O)ncnc32)C(O)C1O` (stereo not given), under setting [1], the MIC50 came out at 191 µg/mL (≈ 717 µM). Regarding `Nc1ccn([C@@H]2C[C@H](CO)[C@@H](O)[C@H]2O)c(=O)n1` (stereo in doubt; form 2), the MIC50 under setting [1] is 57 µg/mL (≈ 236 µM).
